Measured values as given in ChEMBL document CHEMBL5143542, “Synthesis and biological studies of "Polycerasoidol" and "trans-δ-Tocotrienolic acid" derivatives as PPARα and/or PPARγ agonists” (Bioorg Med Chem, 2022).
The source made the active and inactive calls. No cut-off for these calls is given here.

Experiments:
Assay type in all cases: cell-based
[1] = biological target: T1, Peroxisome proliferator-activated receptor alpha (Homo sapiens) (UniProt Q07869); assay: Agonist activity at Gal4-fused human PPARalpha expressed in COS7 cells assessed as receptor transactivation at 10 uM measured after 24 hrs by luciferase/beta-galactosidase reporter gene assay relative to WY-14643; conditions: filed as agonist
T1 sequence (whole entry): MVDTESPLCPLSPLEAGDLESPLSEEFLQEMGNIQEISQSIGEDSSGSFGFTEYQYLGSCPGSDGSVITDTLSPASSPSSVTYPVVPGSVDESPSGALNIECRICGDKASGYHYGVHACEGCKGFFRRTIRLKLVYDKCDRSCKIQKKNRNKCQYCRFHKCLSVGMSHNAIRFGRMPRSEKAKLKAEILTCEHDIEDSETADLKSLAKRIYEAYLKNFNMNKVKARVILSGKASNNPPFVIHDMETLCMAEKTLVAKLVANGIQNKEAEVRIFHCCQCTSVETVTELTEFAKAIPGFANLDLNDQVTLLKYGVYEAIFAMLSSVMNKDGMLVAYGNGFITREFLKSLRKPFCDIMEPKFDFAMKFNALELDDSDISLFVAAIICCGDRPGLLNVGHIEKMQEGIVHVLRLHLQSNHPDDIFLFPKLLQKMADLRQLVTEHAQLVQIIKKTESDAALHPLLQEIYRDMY

[2] = biological target: T2, Peroxisome proliferator-activated receptor gamma (Homo sapiens, UniProt P37231); assay: (§1) Agonist activity at Gal4-fused human PPARgamma expressed in COS7 cells assessed as receptor transactivation at 10 uM measured after 24 hrs by luciferase/beta-galactosidase reporter gene assay relative to rosiglitazone; conditions: cos7, 24 h, 10 µM
T2 sequence (P37231 whole entry): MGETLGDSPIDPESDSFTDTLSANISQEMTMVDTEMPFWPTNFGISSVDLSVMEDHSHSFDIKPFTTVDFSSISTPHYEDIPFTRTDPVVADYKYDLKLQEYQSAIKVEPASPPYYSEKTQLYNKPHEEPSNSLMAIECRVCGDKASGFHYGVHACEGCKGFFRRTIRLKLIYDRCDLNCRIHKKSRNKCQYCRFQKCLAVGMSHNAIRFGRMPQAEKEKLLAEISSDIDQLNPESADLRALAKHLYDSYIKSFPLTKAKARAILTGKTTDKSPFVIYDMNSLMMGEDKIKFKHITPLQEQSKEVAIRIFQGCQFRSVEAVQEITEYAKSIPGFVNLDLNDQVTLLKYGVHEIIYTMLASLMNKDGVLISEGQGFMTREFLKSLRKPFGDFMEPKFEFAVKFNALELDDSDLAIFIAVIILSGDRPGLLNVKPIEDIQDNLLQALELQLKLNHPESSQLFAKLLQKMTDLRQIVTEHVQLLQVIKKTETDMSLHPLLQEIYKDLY

PPARgamma = biological target: T3, PPARgamma (Homo sapiens, UniProt P37231); assay: as §1; conditions: COS7 cells expressing Gal4-fused human PPARgamma, read-out: max activation
T3 sequence (P37231 whole entry): T2 sequence (P37231 whole entry)

[3] = biological target: T4, Peroxisome proliferator-activated receptor gamma (Homo sapiens) (UniProt P37231); assay: Partial agonist activity at Gal4-fused human PPARgamma expressed in COS7 cells assessed as receptor transactivation at 10 uM measured after 24 hrs by luciferase/beta-galactosidase reporter gene assay; conditions: filed as partial agonist
T4 sequence (whole entry): T2 sequence (P37231 whole entry)

SMILES	Activity [1]	Activity [2]	max activation [1] [%]	Emax at 24 h, 10 µM (PPARgamma) [%]	Activity [3]
CCCOc1ccc2c(c1)CCC(C)(CC/C=C(\C)CCC(=O)Nc1ccccc1)O2 (stereo unspecified)	Active	Active	–	–	–
CCCOc1ccc2c(c1)CCC(C)(CC/C=C(\C)CCC(=O)OCC)O2 (stereo unspecified)	Active	Active	–	–	–
CCCOc1ccc2c(c1)CCC(C)(CC/C=C(\C)CC/C=C(\C)C(=O)OCC)O2 (stereo unspecified)	–	Active	–	–	–
CCCOc1ccc2c(c1)CCC(C)(CC/C=C(\C)CC/C=C(\C)CC/C=C(\C)C(=O)OCC)O2 (stereo unspecified)	Active	Active	–	–	–
CCOC(=O)CC/C(C)=C/CCC1(C)CCc2cc(OCc3ccccc3)ccc2O1 (stereo unspecified)	–	–	123	38	–
CCCOc1ccc2c(c1)CCC(C)(CC/C=C(\C)CC/C=C(\C)CC/C=C(\C)C(=O)Nc1ccccc1)O2 (stereo unspecified)	Active	Active	–	–	–
C/C(=C\CCC1(C)CCc2cc(OCc3ccccc3)ccc2O1)CCC(=O)Nc1ccccc1 (stereo unspecified)	Active	Active	–	–	–
C/C(=C\CC[C@]1(C)CCc2cc(O)cc(C)c2O1)CC/C=C(\C)C(=O)O	–	–	107	95	–
C/C(=C\CCC1(C)CCc2cc(OCc3ccccc3)ccc2O1)CC/C=C(\C)C(=O)Nc1ccccc1 (stereo unspecified)	–	–	–	–	Active
